The nature of the data set: Solubility of peptide G in water. Type of data set: physicochemical. As for the experimental part:
Peptide G was obtained by convergent solid-phase synthesis through condensation of peptide segments, which, in turn, were obtained either on a polymer surface or in solution. Peptide G was purified by preparative HPLC to 98% purity on a Knauer chromatograph (Germany) using a Kromasil 100-10 ODS column (Sweden) (30 × 250 mm). Analytical HPLC was performed on a Kromasil 100-5 C18 column (4.6 × 250 mm) with a 5-μm sorbent particle size. The following eluents were used: 0.1% TFA as buffer A and 80% acetonitrile in buffer A as buffer B. The elution was carried out in a linear buffer B gradient ranging from 20 to 80% for 30 min at a rate of 1 ml/min. Detection was performed at λ = 220 nm (Supplementary materials; Fig. S1). The peptide structure was confirmed by MALDI-TOF/TOF mass spectrometry on an UltrafleXtreme Bruker Daltonics GmbH mass spectrometer (Germany) equipped with a UV laser (Nd) (Supplementary materials, Fig. S2).

A word on the solubility: it is the dissolved amount per volume that the medium holds. A low value points to a poorly soluble substance. Turning to `CC[C@H](C)[C@H](NC(=O)[C@H](C)NC(=O)[C@H](Cc1c[nH]cn1)NC(=O)[C@@H]1CCCN1C(=O)CNC(=O)[C@H](CC(C)C)NC(=O)[C@H](CC(C)C)NC(=O)[C@H](Cc1ccc(O)cc1)NC(=O)CNC(=O)[C@H](C)NC(=O)[C@H](CO)NC(=O)[C@H](CC(N)=O)NC(=O)[C@H](CC(C)C)NC(=O)[C@@H](NC(=O)[C@H](Cc1c[nH]c2ccccc12)NC(=O)CN)[C@@H](C)O)C(=O)N[C@@H](CC(=O)O)C(=O)N[C@@H](CC(N)=O)C(=O)N[C@@H](Cc1c[nH]cn1)C(=O)N[C@@H](CCCNC(=N)N)C(=O)N[C@@H](CO)C(=O)N[C@@H](Cc1ccccc1)C(=O)N[C@@H](CO)C(=O)N[C@@H](CC(=O)O)C(=O)N[C@@H](CCCCN)C(=O)N[C@@H](Cc1c[nH]cn1)C(=O)NCC(=O)N[C@@H](CC(C)C)C(=O)N[C@H](C(N)=O)[C@@H](C)O` [G, galanin], the solubility was more than 40 mg/mL.
